Source: ChEMBL document CHEMBL2074275, “Characterization of inducible nature of MRP3 in rat liver” (Am J Physiol Gastrointest Liver Physiol, 2000)

Experiments:
Assay type in all cases: functional, organism-based, Sprague-Dawley
[1] = biological target: T1, Hepatic sodium/bile acid cotransporter (Rattus norvegicus, UniProt P26435); test: (§1) TP_TRANSPORTER: Northern blot in vivo SD rat, liver
T1 sequence (P26435 whole entry): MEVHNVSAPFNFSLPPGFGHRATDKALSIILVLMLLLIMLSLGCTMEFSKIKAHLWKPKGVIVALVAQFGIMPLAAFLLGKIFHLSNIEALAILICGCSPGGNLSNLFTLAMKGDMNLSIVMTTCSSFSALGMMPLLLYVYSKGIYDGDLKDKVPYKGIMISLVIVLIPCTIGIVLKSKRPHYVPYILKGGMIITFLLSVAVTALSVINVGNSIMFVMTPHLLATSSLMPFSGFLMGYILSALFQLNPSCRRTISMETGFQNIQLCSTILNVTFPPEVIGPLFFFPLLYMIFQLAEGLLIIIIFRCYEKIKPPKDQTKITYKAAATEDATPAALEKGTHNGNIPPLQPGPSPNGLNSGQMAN

[2] = biological target: T2, ATP-binding cassette sub-family C member 3 (Rattus norvegicus, UniProt O88563); test: as §1
T2 sequence (O88563 whole entry): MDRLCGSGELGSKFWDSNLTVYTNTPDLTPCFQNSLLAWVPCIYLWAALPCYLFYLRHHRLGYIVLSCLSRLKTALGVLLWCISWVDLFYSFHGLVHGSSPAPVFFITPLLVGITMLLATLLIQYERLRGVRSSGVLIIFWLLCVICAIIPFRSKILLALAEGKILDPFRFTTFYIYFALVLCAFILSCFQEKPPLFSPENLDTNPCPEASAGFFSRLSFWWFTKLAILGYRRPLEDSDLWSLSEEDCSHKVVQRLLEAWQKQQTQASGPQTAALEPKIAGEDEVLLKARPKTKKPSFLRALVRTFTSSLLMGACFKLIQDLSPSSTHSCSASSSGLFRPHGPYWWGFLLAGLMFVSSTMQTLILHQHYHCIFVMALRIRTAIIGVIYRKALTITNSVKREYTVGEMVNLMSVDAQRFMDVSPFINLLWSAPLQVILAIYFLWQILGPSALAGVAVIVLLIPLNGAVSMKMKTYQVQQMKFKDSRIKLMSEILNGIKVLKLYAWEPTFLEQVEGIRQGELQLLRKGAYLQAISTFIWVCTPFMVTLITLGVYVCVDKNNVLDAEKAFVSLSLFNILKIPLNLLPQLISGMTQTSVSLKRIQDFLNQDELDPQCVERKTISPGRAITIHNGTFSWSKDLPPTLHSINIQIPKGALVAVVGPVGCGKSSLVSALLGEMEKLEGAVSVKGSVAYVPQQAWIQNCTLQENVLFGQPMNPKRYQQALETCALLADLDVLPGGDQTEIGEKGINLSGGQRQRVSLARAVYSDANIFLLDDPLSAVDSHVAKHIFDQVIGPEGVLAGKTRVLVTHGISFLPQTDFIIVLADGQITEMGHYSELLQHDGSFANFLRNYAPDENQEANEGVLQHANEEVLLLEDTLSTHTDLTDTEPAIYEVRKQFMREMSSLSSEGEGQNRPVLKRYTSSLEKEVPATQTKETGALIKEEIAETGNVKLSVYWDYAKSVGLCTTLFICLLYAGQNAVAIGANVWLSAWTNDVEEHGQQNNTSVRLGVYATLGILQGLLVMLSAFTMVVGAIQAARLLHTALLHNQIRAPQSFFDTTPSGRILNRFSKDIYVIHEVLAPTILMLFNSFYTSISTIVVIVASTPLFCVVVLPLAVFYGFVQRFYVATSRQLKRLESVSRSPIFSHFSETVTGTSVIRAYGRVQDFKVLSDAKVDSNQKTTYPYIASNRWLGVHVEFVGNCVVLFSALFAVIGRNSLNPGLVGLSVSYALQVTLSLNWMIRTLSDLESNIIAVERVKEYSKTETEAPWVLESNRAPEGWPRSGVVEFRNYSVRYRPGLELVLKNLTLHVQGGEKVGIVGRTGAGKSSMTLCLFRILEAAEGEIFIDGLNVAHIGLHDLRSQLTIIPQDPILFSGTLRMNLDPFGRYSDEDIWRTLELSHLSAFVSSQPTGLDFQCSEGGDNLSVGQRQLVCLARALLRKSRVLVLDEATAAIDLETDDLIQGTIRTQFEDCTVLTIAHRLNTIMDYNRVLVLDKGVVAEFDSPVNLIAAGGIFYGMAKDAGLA

[3] = biological target: ATP-binding cassette sub-family C member 6 (Rattus norvegicus, UniProt O88269); test: as §1
ATP-binding cassette sub-family C member 6, sequence (O88269 whole entry): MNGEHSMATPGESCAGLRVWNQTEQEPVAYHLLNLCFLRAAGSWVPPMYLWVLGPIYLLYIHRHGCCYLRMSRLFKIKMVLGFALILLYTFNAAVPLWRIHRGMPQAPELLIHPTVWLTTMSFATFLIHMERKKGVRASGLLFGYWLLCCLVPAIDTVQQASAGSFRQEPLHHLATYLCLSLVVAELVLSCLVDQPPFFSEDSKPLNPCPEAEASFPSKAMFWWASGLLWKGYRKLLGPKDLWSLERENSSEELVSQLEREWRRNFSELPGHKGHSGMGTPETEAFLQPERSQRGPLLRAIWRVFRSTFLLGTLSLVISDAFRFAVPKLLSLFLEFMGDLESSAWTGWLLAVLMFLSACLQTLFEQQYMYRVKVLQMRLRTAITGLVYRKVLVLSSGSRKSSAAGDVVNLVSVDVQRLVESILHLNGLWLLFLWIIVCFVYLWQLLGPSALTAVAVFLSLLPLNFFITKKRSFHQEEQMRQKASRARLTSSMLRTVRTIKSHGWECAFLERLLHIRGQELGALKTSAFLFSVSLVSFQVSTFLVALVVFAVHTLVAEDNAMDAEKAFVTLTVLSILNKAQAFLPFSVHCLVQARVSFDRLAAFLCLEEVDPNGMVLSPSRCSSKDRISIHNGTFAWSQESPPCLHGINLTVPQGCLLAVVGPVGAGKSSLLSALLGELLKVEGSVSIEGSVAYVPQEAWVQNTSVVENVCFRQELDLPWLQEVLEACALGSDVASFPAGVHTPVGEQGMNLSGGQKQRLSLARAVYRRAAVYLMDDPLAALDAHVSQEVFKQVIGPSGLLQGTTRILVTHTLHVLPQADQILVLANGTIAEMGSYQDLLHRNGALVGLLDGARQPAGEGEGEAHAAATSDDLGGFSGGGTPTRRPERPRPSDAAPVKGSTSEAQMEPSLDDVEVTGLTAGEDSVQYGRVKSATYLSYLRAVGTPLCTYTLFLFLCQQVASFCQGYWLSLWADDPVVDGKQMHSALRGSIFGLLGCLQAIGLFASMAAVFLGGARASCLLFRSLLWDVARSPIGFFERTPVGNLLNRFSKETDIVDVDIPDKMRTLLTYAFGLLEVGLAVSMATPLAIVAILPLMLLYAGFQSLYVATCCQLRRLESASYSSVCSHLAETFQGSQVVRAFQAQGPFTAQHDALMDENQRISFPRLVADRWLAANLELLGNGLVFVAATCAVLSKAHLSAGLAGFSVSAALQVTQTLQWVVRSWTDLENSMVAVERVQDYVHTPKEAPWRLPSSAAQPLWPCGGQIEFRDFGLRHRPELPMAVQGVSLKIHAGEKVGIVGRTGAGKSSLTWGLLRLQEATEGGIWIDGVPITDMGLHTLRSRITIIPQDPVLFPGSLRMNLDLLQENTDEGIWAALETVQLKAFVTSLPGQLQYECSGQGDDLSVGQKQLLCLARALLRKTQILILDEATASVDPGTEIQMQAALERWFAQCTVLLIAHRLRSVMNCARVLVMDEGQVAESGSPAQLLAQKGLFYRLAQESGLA

[4] = biological target: T2, ATP-binding cassette sub-family C member 3; test: TP_TRANSPORTER: Western in vivo SD rat, liver

Measured: Activity

CCC1(c2ccccc2)C(=O)NC(=O)NC1=O [PHENOBARBITAL]
inducer [+]: [1] | [2] | [3] | [4]

O=C=Nc1cccc2ccccc12 [alpha-naphthylisocyanate]
inducer [+]: [1] | [2] | [3] | [4]
